This note sets out measurements from PMC8596125, “Self‐Stabilized Supramolecular Assemblies Constructed from PEGylated Dendritic Peptide Conjugate for Augmenting Tumor Retention and Therapy” (Advanced Science, 2021).

For data set [1], the system named is 4T1 cells. Put plainly: In vitro cellular uptake (flow cytometry, CLSM). As to conditions: 1 µg Ppa mL-1, 2, 6 and 24 h. Format: cell-based, mouse. On the procedure: CCK-8 assay. 5×103 L02 normal cells per well were seeded in a 96-well plate, and then treated by Ppa and SSAs for 24 h incubation or PDP for 24 h and 48 h incubation.
Cell viability of each group was obtained through the same process.
1.3.9 In vitro cellular uptake
To determine cellular uptake and intracellular distribution of SSAs, 4T1 cells (2×104) were seeded on each glass coverslip to allow attachment, and incubated with Ppa and PDPP for 1 h, 3 h and 6 h, while Ppa was used as a control. After nuclear staining by Hoechst 33258, cells were washed by PBS and then observed under a confocal laser scanning microscopy (CLSM) (excitation and emission wavelengths:
630 nm and 678 nm), and images were captured by Leica Confocal Software.
For quantitative characterization of uptake of SSAs by cells, 4T1 cells were seeded in 6 well plates at 1×10^5 cells per well and incubated for 2 h, 6 h and 24 h. After the spent medium was replaced with fresh one, cells were treated by Ppa and SSAs at an equivalent concentration of 1 μg Ppa mL-1 for pre-specified times. Cells were then washed with PBS twice, harvested, and suspended in 100 μL of PBS for flow cytometer analyses. 20,000 events were collected and Flowjo software was used for generating each histogram.
For TEM, 4T1 cells cultured in 6 cm dishes were incubated with Ppa and SSAs. […]

In data set [2] the test system is 4T1 breast tumors. Put plainly: In vivo photodynamic therapy, 4T1 breast tumor model. On the set-up: species or system mouse. Particulars: n = 6; for TGI: BALB/c mice with 4T1 tumors. On the procedure: and 14 d post-intravenous injection by a small-animal in vivo fluorescence imaging system (CRi Maestro EX, USA) with excitation at 450 nm and emission at 560 nm.
The mean fluorescence intensity (MFI) was quantitated by CRi Maestro EX 3.0.
Ex vivo fluorescent imaging
After BALB/c mice developed established tumors (100 mm3), Ppa and SSAs (5 mg Ppa kg-1) were intravenously injected into mice via their tail veins (n = 3). The mice were sacrificed at different time points (1 d, 3 d, 5 d, 7 d, 10 d and 14 d) after post-injection, and tumors were excised for ex vivo imaging and semi-quantitative distribution analysis by an in vivo imaging system (IVIS Spectrum In Vivo Imaging System, USA). These tumors were excised for preparing frozen sections. The fixed tumor samples were sectioned into 5 μm-thick slides and incubated with Alex Fluor 594 labeled anti-CD31 antibody (Abcam, UK) and DAPI (Dojindo, Japan). A confocal microscope was used to observe accumulation and retention of Ppa in the […]
1.3.15 In vivo photodynamic therapy
In the 4T1 breast tumor model, when the tumor volume reached about 50 mm3, the mice were divided into 5 groups (n = 6) and injected intravenously with saline, Ppa-1(one treatment), Ppa-2 (two treatments), SSAs-1 (one treatment) and SSAs-2 (two treatments) every four days. The dose per injection was 5 mg Ppa kg-1. After 3 d post-injection, mice were anesthetized with 2% (v/v) isofluorane and tumors were irradiated for 8 min (660 nm, 200 mW cm-2); The mice were monitored daily to identify any signs of toxicity, while the tumor volumetric size and the body weight were measured every 2 d. Tumor volumes were calculated using the following formula: tumor volume = length × width2 × 0.5. […]
For studies with an A549 human non-small cell lung tumor model, nude mice were randomly allocated into three groups (n= 5): saline (control), Ppa, and SSAs when the average tumor volume reached 50 mm3. […] The tumor growth was monitored and the tumor size was measured every 3 d. […]
Untreated cells were set as a control. […] Relative abundance of transcripts was calculated with kallisto. […]

The subject of data set [3] is A549 cells. Put plainly: Cytotoxicity, CCK-8 assay, A549. Format: cell-based, human. On the procedure:
The CCK-8 assay was used to examine the photodynamic therapeutic effect of SSAs on cell viability against three cell lines. 4×103 4T1 cells per well were seeded in a 96-well plate, and then incubated overnight. The cells were treated with different concentrations of Ppa and SSAs at an equivalent Ppa dose. After 24 h incubation, the medium was replaced with fresh one, and the wells were irradiated using a 660 nm laser with 1 J cm−2. After 24 h, the spent media was replaced and the cell viability was assessed using the CCK-8 reagent. The absorbance at […] of each well was recorded on a microplate reader. Untreated cells were served as a control. Results were presented as the average cell viability by following the manufacturer’s instruction. IC50 values were calculated by using nonlinear regression in software Graphpad Prism7. The cytotoxicity of SSAs and Ppa with or without laser against A549 cell line was also measured through the same procedure. […]

Structures are written as SMILES.

What is called TGI is how far tumour growth fell short of that in controls. High values mean a stronger effect on the tumour, low ones a weaker effect on the tumour. On to `C=Cc1c(C)c2cc3nc(c4c5[nH]c(cc6nc(cc1[nH]2)C(C)=C6CC)c(C)c5C(=O)C4)[C@@H](CCC(=O)O)[C@@H]3C` [Ppa, pyropheophorbide a], for which the Cellular uptake result in data set [1] is “better uptake efficiency compared with SSAs”. Also, the TGI is 11.6% in data set [2] (one treatment (group -1), i.v. 5 mg Ppa kg-1, 660 nm 200 mW cm-2 8 min 3 d post-injection) and 17.1% in data set [2] (two treatments (group -2), i.v. 5 mg Ppa kg-1 per injection, 660 nm 200 mW cm-2 8 min 3 d post-injection). Also, the “Antitumor effect on tumor growth” value in data set [2] (once and twice treatments, 4T1 model) was “no significant antitumor inhibitory effect”. Besides, in data set [3], the “Cytotoxicity without laser irradiation” value is on record as “much higher cytotoxicity”. For the same compound, in data set [3] (660 nm laser), the “Cytotoxicity under laser irradiation” value is on record as “strong cytotoxicity”.
